Experimental data reported in US8961837B2, “Photosensitive resin composition for color filter and color filter using same” (Cheil Industries Inc., priority 2010, dated 2015).

How the values were obtained:
[1] = Spectrum transmittance / maximum absorption wavelength of the dye; format: physicochemical
Description: (§1) The diaminopyridine azo-based dyes (A-1) according to Examples 1 to 6 are measured regarding various properties such as solubility, maximum absorption wavelength, thermal decomposition temperature, and the like.
(§2) FIG. 1 is a graph showing the spectrum transmittance graph of the diaminopyridine azo-based dye (A-1), and FIG. 2 is a graph showing thermogravimetric analysis (TGA) results.

[2] = Thermogravimetric analysis (TGA) of the dye; format: physicochemical; details: temperature at which 10% of weight is decomposed (TGA)
Description: as §1, §2

maximum absorption wavelength [1]: 470 nm | thermal decomposition temperature [2]: 318 °C
SMILES: CCCCC(CC)CNCCS(=O)(=O)c1ccc(/N=N/c2c(NCC(CC)CCCC)nc(NCC(CC)CCCC)c(C#N)c2C)cc1 (centres unmarked) [A-1]
